{"source": "patent US20230248741A1", "about": "“Compositions and Methods for Lowering Triglycerides in a Subject with Reduced Kidney Function and Diabetes Mellitus” (Amarin Pharmaceuticals Ireland Limited, priority 2018, published 2023)", "key": {"[1]": {"test_system": "patients with diabetes mellitus and eGFR <90 mL/min/1.73 m^2 for ≥3 months", "experiment": "ANCHOR post-hoc (diabetes mellitus, eGFR <90): adverse events and renal parameters", "format": "in vivo, human", "protocol": "Safety assessments will include adverse events, clinical laboratory measurements (chemistry, hematology, and urinalysis), 12-lead electrocardiograms (ECGs), vital signs, and physical examinations.\nCVD-related (e.g., atherogenic) parameters were analyzed in a post-hoc study of 198 patients from the multi-center, placebo-controlled, randomized double-blind, 12-week study described in Example 1. These 198 patients have reduced kidney reduced function (e.g., eGFR<90 mL/min/1.73 m^2 for ≥3 months) and diabetes mellitus.\nIn this study, 6 patients in the placebo group discontinued (i.e., withdrawal with consent [n=2]; adverse event [n=2]; death [n=1]; other reason [n=1] and 4 patients from the 4 g/day group discontinued (i.e., adverse event [n=3] and other reason [n=1]). The death in the placebo group was due to myocardial infarction and not considered to be assigned to the investigational agent."}, "[2]": {"test_system": "patients with chronic kidney disease (eGFR <60 mL/min/1.73 m^2 for ≥3 months)", "experiment": "ANCHOR post-hoc: lipid and lipoprotein parameters, oxidation and inflammation markers", "format": "in vivo, human", "protocol": "CVD-related (e.g., atherogenic) parameters were analyzed in a post-hoc study of 55 patients from the multi-center, placebo-controlled, randomized double-blind, 12-week study described in Example 1. These 55 patients have chronic kidney disease (e.g., eGFR<60 mL/min/1.73 m^2 for ≥3 months). There was no lower limit of eGFR specified.\nSubjects: 19 patients were randomized to E-EPA and 36 patients were randomized to placebo. One patient in each group discontinued and was excluded from efficacy analyses (but not safety analyses). EPA levels in plasma and RBC were measured in 23 of the 55 patients. These measurements were taken on 7 of the patients randomized to E-EPA and on 16 of the patients that were randomized to the placebo.\nThe primary objective of this post-hoc study, which is based on an intention to treat, was to determine if and how 4 g daily of >96% E-EPA affects patients with stage 3 chronic kidney disease (e.g., eGFR<60 mL/min/1.73 m^2 for ≥3 months). The secondary objective was to determine if and how 4 g daily of >96% E-EPA, compared to a placebo, affected CVD-related parameters in patients with a high risk of CVD and fasting TG levels ≥[…] and <500 mg/dL, despite LDL-C goal on statin therapy. These CVD-parameters include lipid levels, lipoprotein levels, and inflammatory markers, such as TC, LDL-C, HDL-C, VLDL-C, VLDL-TG, RLP-C, non-HDL-C, Apo B, Apo C-III, Lp-PLA, hsCRP, and ox-LDL, and in plasma and RBC EPA concentration. CVD-parameters were analyzed for median difference in percent change from baseline to week 12 in subjects receiving 4 g/day of E-EPA and those receiving the placebo.\nAnalysis: The median difference in percent change from baseline between 4 g/day of E-EPA and placebo for the primary efficacy variable and additional assessments were estimated using the Hodges-Lehmann method (P values from the Wilcoxon rank-sum test for treatment comparisons). Using the Hodges-Lehmann method, departures from normal distribution were observed; for normally distributed parameters, an analysis of covariance model was used with least squares (LS) means and standard errors (SE). Missing values were imputed using the last-observation-carried-forward method. For all post hoc analyses, the alpha for statistical significance was 0.05."}, "[3]": {"details": "4 g/day group (n = 17), before treatment"}, "[4]": {"details": "4 g/day group, before treatment"}, "[5]": {"details": "4 g/day, week 12, Hodges-Lehmann"}}, "data": [{"compound": "CC/C=C\\C/C=C\\C/C=C\\C/C=C\\C/C=C\\CCCC(=O)OCC", "note": "[E-EPA, ethyl eicosapentaenoate]", "values": [{"measurement": "renal function", "setting": "[1]; 4 g/day", "value": "no negative impact on renal function"}, {"measurement": "Patients With TEAEs: Any TEAE", "setting": "[1]; 4 g/day (n = 100)", "value": "49 (49.0) n (%)"}, {"measurement": "Patients With TEAEs: Arthralgia", "setting": "[1]; 4 g/day (n = 100)", "value": "1 (1.0) n (%)"}, {"measurement": "Patients With TEAEs: Diarrhea", "setting": "[1]; 4 g/day (n = 100)", "value": "5 (5.0) n (%)"}, {"measurement": "Patients With TEAEs: Nasopharyngitis", "setting": "[1]; 4 g/day (n = 100)", "value": "1 (1.0) n (%)"}, {"measurement": "Patients With TEAEs: Nausea", "setting": "[1]; 4 g/day (n = 100)", "value": "3 (3.0) n (%)"}, {"measurement": "patients discontinued due to adverse event", "setting": "[1]; 4 g/day group, 4 discontinued in total", "value": 3, "unit": "n"}, {"measurement": "serum creatinine after 12 weeks", "setting": "[1]; 4 g/day, before 0.9 mg/dL, no significant change", "value": 0.9, "unit": "mg/dL"}, {"measurement": "BUN after 12 weeks", "setting": "[1]; 4 g/day, before 18 mg/dL, no significant change", "value": 18, "unit": "mg/dL"}, {"measurement": "albumin after 12 weeks", "setting": "[1]; 4 g/day, before 4.5 g/dL, no significant change", "value": 4.5, "unit": "g/dL"}, {"measurement": "eGFR after 12 weeks", "setting": "[1]; 4 g/day, before 75.4, no significant change", "value": 79.1, "unit": "mL/min/1.73 m^2"}, {"measurement": "Ox-LDL Baseline, median", "setting": "[2]; 4 g/day group (n = 8), before treatment", "value": 48.6, "unit": "u/L"}, {"measurement": "RLP-C Baseline, median", "setting": "[2]; 4 g/day group (n = 9), before treatment", "value": 17.0, "unit": "mg/dL"}, {"measurement": "Apo C-III Baseline, median", "setting": "[2]; 4 g/day group (n = 13), before treatment", "value": 15.6, "unit": "mg/dL"}, {"measurement": "Apo B Baseline, median", "setting": "[2]; [3]", "value": 87.0, "unit": "mg/dL"}, {"measurement": "Lp-PLA2 Baseline, median", "setting": "[2]; [3]", "value": 173.0, "unit": "ng/mL"}, {"measurement": "hsCRP Baseline, median", "setting": "[2]; [3]", "value": 1.9, "unit": "mg/L"}, {"measurement": "TGs Baseline, median", "setting": "[2]; 4 g/day group (n = 18), before treatment", "value": 268.5, "unit": "mg/dL"}, {"measurement": "HDL-C Baseline, median", "setting": "[2]; [4]", "value": 35.0, "unit": "mg/dL"}, {"measurement": "LDL-C Baseline, median", "setting": "[2]; [4]", "value": 76.0, "unit": "mg/dL"}, {"measurement": "Non-HDL-C Baseline, median", "setting": "[2]; [4]", "value": 124.5, "unit": "mg/dL"}, {"measurement": "TC Baseline, median", "setting": "[2]; [4]", "value": 159.5, "unit": "mg/dL"}, {"measurement": "VLDL-C Baseline, median", "setting": "[2]; [4]", "value": 42.0, "unit": "mg/dL"}, {"measurement": "VLDL-TGs Baseline, median", "setting": "[2]; [4]", "value": 194.0, "unit": "mg/dL"}, {"measurement": "reduction of TG compared to placebo", "setting": "[2]; 4 g/day, 12 weeks, P=0.007", "value": "at least 16.9%"}, {"measurement": "median TGs reduction from baseline", "setting": "[2]; 4 g/day, CKD cohort", "value": "−16.9", "unit": "%"}, {"measurement": "Apo B Change From Baseline, %, median", "setting": "[2]; 4 g/day, week 12", "value": "−7.2", "unit": "%"}, {"measurement": "Apo B End of Treatment, median", "setting": "[2]; 4 g/day, week 12", "value": 83.0, "unit": "mg/dL"}, {"measurement": "Apo C-III Change From Baseline, %, median", "setting": "[2]; 4 g/day, week 12", "value": "−7.3", "unit": "%"}, {"measurement": "Apo C-III End of Treatment, median", "setting": "[2]; 4 g/day, week 12", "value": 13.9, "unit": "mg/dL"}, {"measurement": "HDL-C Change From Baseline, %, median", "setting": "[2]; 4 g/day, week 12", "value": 0.9, "unit": "%"}, {"measurement": "HDL-C End of Treatment, median", "setting": "[2]; 4 g/day, week 12", "value": 35.5, "unit": "mg/dL"}, {"measurement": "LDL-C Change From Baseline, %, median", "setting": "[2]; 4 g/day, week 12", "value": "−6.5", "unit": "%"}, {"measurement": "LDL-C End of Treatment, median", "setting": "[2]; 4 g/day, week 12", "value": 70.5, "unit": "mg/dL"}, {"measurement": "Lp-PLA2 Change From Baseline, %, median", "setting": "[2]; 4 g/day, week 12", "value": "−12.7", "unit": "%"}, {"measurement": "Lp-PLA2 End of Treatment, median", "setting": "[2]; 4 g/day, week 12", "value": 150.0, "unit": "ng/mL"}, {"measurement": "Non-HDL-C Change From Baseline, %, median", "setting": "[2]; 4 g/day, week 12", "value": "−8.4", "unit": "%"}, {"measurement": "Non-HDL-C End of Treatment, median", "setting": "[2]; 4 g/day, week 12", "value": 116.0, "unit": "mg/dL"}, {"measurement": "Ox-LDL Change From Baseline, %, median", "setting": "[2]; 4 g/day, week 12", "value": "−9.5", "unit": "%"}, {"measurement": "Ox-LDL End of Treatment, median", "setting": "[2]; 4 g/day, week 12", "value": 45.1, "unit": "u/L"}, {"measurement": "TC Change From Baseline, %, median", "setting": "[2]; 4 g/day, week 12", "value": "−8.1", "unit": "%"}, {"measurement": "TC End of Treatment, median", "setting": "[2]; 4 g/day, week 12", "value": 151.5, "unit": "mg/dL"}, {"measurement": "TGs Change From Baseline, %, median", "setting": "[2]; 4 g/day, week 12", "value": "−17.1", "unit": "%"}, {"measurement": "TGs End of Treatment, median", "setting": "[2]; 4 g/day, week 12", "value": 230.5, "unit": "mg/dL"}, {"measurement": "VLDL-C Change From Baseline, %, median", "setting": "[2]; 4 g/day, week 12", "value": "−16.3", "unit": "%"}, {"measurement": "VLDL-C End of Treatment, median", "setting": "[2]; 4 g/day, week 12", "value": 36.5, "unit": "mg/dL"}, {"measurement": "VLDL-TGs Change From Baseline, %, median", "setting": "[2]; 4 g/day, week 12", "value": "−25.8", "unit": "%"}, {"measurement": "VLDL-TGs End of Treatment, median", "setting": "[2]; 4 g/day, week 12", "value": 168.5, "unit": "mg/dL"}, {"measurement": "hsCRP Change From Baseline, %, median", "setting": "[2]; 4 g/day, week 12", "value": "−16.9", "unit": "%"}, {"measurement": "hsCRP End of Treatment, median", "setting": "[2]; 4 g/day, week 12", "value": 2.1, "unit": "mg/L"}, {"measurement": "Apo B Median Difference in % Change From Baseline vs. Placebo", "setting": "[2]; [5]", "value": "−18.7, 0.0002%"}, {"measurement": "Apo C-III Median Difference in % Change From Baseline vs. Placebo", "setting": "[2]; [5]", "value": "−15.0, 0.0168%"}, {"measurement": "HDL-C Median Difference in % Change From Baseline vs. Placebo", "setting": "[2]; [5]", "value": "−8.3, 0.0362%"}, {"measurement": "LDL-C Median Difference in % Change From Baseline vs. Placebo", "setting": "[2]; [5]", "value": "−20.8, 0.0086%"}, {"measurement": "Lp-PLA2 Median Difference in % Change From Baseline vs. Placebo", "setting": "[2]; [5]", "value": "−17.5, 0.0068%"}, {"measurement": "Non-HDL-C Median Difference in % Change From Baseline vs. Placebo", "setting": "[2]; [5]", "value": "−21.5, <0.0001%"}, {"measurement": "Ox-LDL Median Difference in % Change From Baseline vs. Placebo", "setting": "[2]; [5]", "value": "−25.7, 0.0068%"}, {"measurement": "RLP-C Median Difference in % Change From Baseline vs. Placebo", "setting": "[2]; [5]", "value": "−38.8, 0.0295%"}, {"measurement": "TC Median Difference in % Change From Baseline vs. Placebo", "setting": "[2]; [5]", "value": "−18.2, <0.0001%"}, {"measurement": "TGs Median Difference in % Change From Baseline, Icosapent Ethyl 4 g/day vs. Placebo", "setting": "[2]; [5]", "value": "−16.9, 0.0074%"}, {"measurement": "VLDL-C Median Difference in % Change From Baseline vs. Placebo", "setting": "[2]; [5]", "value": "−28.7, 0.0026%"}, {"measurement": "VLDL-TGs Median Difference in % Change From Baseline vs. Placebo", "setting": "[2]; [5]", "value": "−25.6, 0.0020%"}, {"measurement": "hsCRP Median Difference in % Change From Baseline vs. Placebo", "setting": "[2]; 4 g/day, week 12, Hodges-Lehmann, P 0.1209", "value": "−25.0, 0.1209%"}, {"measurement": "RLP-C Change From Baseline, %, median", "setting": "[2]; 4 g/day, week 12, n = 9", "value": "−38.9", "unit": "%"}, {"measurement": "RLP-C End of Treatment, median", "setting": "[2]; 4 g/day, week 12, n = 9", "value": 10.0, "unit": "mg/dL"}]}]}
